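GI50: concentration for 50% inhibition of growth. At the TGI there is no net growth.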
Legend:
Test in all cases: DTP human tumour cell line panel, 384-well format
[1] = test system: SF-295 CNS
[2] = test system: RXF 393 renal
[3] = test system: SK-MEL-28 melanoma
[4] = test system: BT-549 breast
[5] = test system: HCT-116 colon
[6] = test system: UACC-62 melanoma
[7] = test system: SF-539 CNS
[8] = test system: SK-MEL-2 melanoma
[9] = test system: NCI-H322M lung
[10] = test system: TK-10 renal
[11] = test system: U251 glioblastoma
[12] = test system: SR leukemia
[13] = test system: OVCAR-5 ovarian
[14] = test system: EKVX NSCLC
[15] = test system: A549 NSCLC
[16] = test system: A498 renal
[17] = test system: T-47D breast
[18] = test system: SK-MEL-5 melanoma
[19] = test system: SF-268 CNS
[20] = test system: OVCAR-3 ovarian
[21] = test system: SNB-75 CNS
[22] = test system: 786-0 renal
[23] = test system: HOP-92 NSCLC
[24] = test system: HOP-62 NSCLC
[25] = test system: MDA-MB-468 breast
[26] = test system: UO-31 renal
[27] = test system: K-562 leukemia
[28] = test system: HS 578T breast
[29] = test system: PC-3 prostate
[30] = test system: HCT-15 colon
[31] = test system: CAKI-1 renal
[32] = test system: KM12 colon
[33] = test system: UACC-257 melanoma
[34] = test system: SN12C renal
[35] = test system: DU-145 prostate
[36] = test system: SK-OV-3 ovarian
[37] = test system: SNB-19 CNS
[38] = test system: MDA-MB-435 melanoma
[39] = test system: NCI-H460 NSCLC
[40] = test system: MALME-3M melanoma
[41] = test system: NCI-H226 lung
[42] = test system: SW-620 colon
[43] = test system: MDA-MB-231 breast
[44] = test system: HL-60(TB) leukemia
[45] = test system: MOLT-4 leukemia
[46] = test system: ACHN renal
[47] = test system: NCI-H522 lung
[48] = test system: HT29 colon
[49] = test system: M14 melanoma
[50] = test system: NCI-H23 lung
[51] = test system: COLO 205 colon
[52] = test system: MCF7 breast
[53] = test system: OVCAR-8 ovarian
[54] = test system: IGROV1 ovarian
[55] = test system: OVCAR-4 ovarian

Cn1cc(-c2ccc3c(c2)ncn3-c2cc(NS(=O)(=O)C3CC3)cc(-c3ccc(F)cc3F)c2)cn1
GI50 [1]: 1.69 µM | TGI [1]: 4.14 µM | GI50 [2]: 0.183 µM | TGI [2]: 2.06 µM | GI50 [3]: 4.04 µM | TGI [3]: 19.5 µM | GI50 [4]: 1.03 µM | TGI [4]: 9.21 µM | GI50 [5]: 2.79 µM | TGI [5]: 12.3 µM | GI50 [6]: 6.3 µM | TGI [6]: 18.9 µM | GI50 [7]: 0.305 µM | TGI [7]: 2.05 µM | GI50 [8]: 2.78 µM | TGI [8]: 7.22 µM | GI50 [9]: 3.3 µM | TGI [9]: 20.7 µM | GI50 [10]: 2.87 µM | TGI [10]: 24.4 µM | GI50 [11]: 2.15 µM | TGI [11]: 12.3 µM | GI50 [12]: 1.89 µM | TGI [12]: 3.7 µM | GI50 [13]: 4.31 µM | TGI [13]: 79.4 µM | GI50 [14]: 2.82 µM | TGI [14]: 13.5 µM | GI50 [15]: 3.42 µM | TGI [15]: > 100 µM | GI50 [16]: 2.36 µM | TGI [16]: 6.03 µM | GI50 [17]: 2.63 µM | TGI [17]: 13.7 µM | GI50 [18]: 3.28 µM | TGI [18]: 15.7 µM | GI50 [19]: 3.4 µM | TGI [19]: 61.3 µM | GI50 [20]: 3.15 µM | TGI [20]: 11.4 µM | GI50 [21]: 0.29 µM | TGI [21]: 3.53 µM | GI50 [22]: 1.99 µM | TGI [22]: 4.95 µM | GI50 [23]: 2.03 µM | TGI [23]: 12.4 µM | GI50 [24]: 2.39 µM | TGI [24]: 10.8 µM | GI50 [25]: 1.71 µM | TGI [25]: 6.44 µM | GI50 [26]: 1.73 µM | TGI [26]: 7.66 µM | GI50 [27]: 1.81 µM | TGI [27]: 3.65 µM | GI50 [28]: 0.575 µM | TGI [28]: 2.44 µM | GI50 [29]: 2.92 µM | TGI [29]: 9.54 µM | GI50 [30]: 4.25 µM | TGI [30]: 24 µM | GI50 [31]: 2.16 µM | TGI [31]: > 100 µM | GI50 [32]: 3.4 µM | TGI [32]: 13.2 µM | GI50 [33]: 3.02 µM | TGI [33]: 10.3 µM | GI50 [34]: 2.51 µM | TGI [34]: > 100 µM | GI50 [35]: 4.9 µM | TGI [35]: 40.2 µM | GI50 [36]: 2.42 µM | TGI [36]: 10.8 µM | GI50 [37]: 4.05 µM | TGI [37]: > 100 µM | GI50 [38]: 4.37 µM | TGI [38]: 72.8 µM | GI50 [39]: 2.48 µM | TGI [39]: 13.7 µM | GI50 [40]: 4.55 µM | TGI [40]: 15.2 µM | GI50 [41]: 0.344 µM | TGI [41]: 14.3 µM | GI50 [42]: 18 µM | TGI [42]: > 100 µM | GI50 [43]: 3.4 µM | TGI [43]: > 100 µM | GI50 [44]: 3.2 µM | TGI [44]: 6.8 µM | GI50 [45]: 1.62 µM | TGI [45]: 3.09 µM | GI50 [46]: 2.5 µM | TGI [46]: 13.2 µM | GI50 [47]: 1.8 µM | TGI [47]: 6.87 µM | GI50 [48]: 3.01 µM | TGI [48]: 10.2 µM | GI50 [49]: 4.6 µM | TGI [49]: 47.3 µM | GI50 [50]: 2.51 µM | TGI [50]: 14.4 µM | GI50 [51]: 11.7 µM | TGI [51]: 93.6 µM | GI50 [52]: 2.07 µM | TGI [52]: 12.8 µM | GI50 [53]: 4.79 µM | TGI [53]: 79.6 µM | GI50 [54]: 2.02 µM | TGI [54]: 6.92 µM | GI50 [55]: 2.26 µM | TGI [55]: 37.6 µM
